The values that follow are results of earlier work, collected in patent US20110028397A1, “Use of Urokinase Type Plasminogen Activator Inhibitors for the Treatment of Corneal Disorders” (priority 2007, published 2011).

For data set [1] the following is noted: eye drop prepared freshly daily, stored in refrigerator between uses.
Data set [2] deals with thrombin (Homo sapiens, UniProt P00734).
For data set [3] the following is noted: in vivo, sc.

Take `N=C(N)NCCC[C@@H](C=O)NC(=O)[C@@H]1CCCN1C(=O)[C@H](N)Cc1ccccc1` [Ald-1, D-Phe-Pro-Arg-aldehyde]: in data set [1], the “inhibitory activity on storage” value was “retains its inhibitory activity”. For the same compound, the anticoagulant activity result (in vitro and in vivo) is “significant anticoagulant activity”. Also, under “in vivo”, the “antithrombotic effect in in vivo studies” value is recorded as “effective antithrombotic drug”. The Ki in data set [2] is 0.075 µM.

In the case of iBuOCO-D-Ser-Ala-Arg-aldehyde, in data set [3], the biological availability is given as 87%.
